Results from patent US20110076258A1, “METHODS OF MODULATING T CELL- DEPENDENT IMMUNE RESPONSES” (Converge Biotech Inc., priority 2008, published 2011).

Tests used:
cd3ε^−/− mice = experiment: Treg cell generation in murine model of inflammatory bowel disease; format: in vivo, mouse; conditions: 3 mM oATP in 100 μl i.v., with transfer or 16 hours after; day 28
Text: FIG. 14: Experimental protocol for Treg generation in a mouse model of inflammatory bowel disease. • CD3ε^−/− mice were adoptively transferred with 2×10^5 naïve CD4^+ T cells; 2×10^5 naïve CD4^+ T cells with oATP; 2×10^5 naïve CD4^+ T cells with administration of oATP sixteen hours after the transfer; or 2×10^5 naïve CD4^+ T cells with 10^5 natural Treg cells. oATP-treated animals received daily intravenous oATP administration on days 2-5, no oATP administration on days 6 and 7, and daily intravenous oATP administration on days 8-12. Mice were analyzed for CD4^+ subpopulations on day 28 (See Example 12).
FIG. 15: Treg cell generation with oATP treatment in a mouse model of inflammatory bowel disease. • a) Colons, spleens and mesenteric lymph nodes of test animals were assessed for inflammation fourteen days after the last injection of oATP (see Example 12). • b) FACS analysis identifying the percentage of CD4^+CD25^highFoxp3 regulatory T cells. • c) FACS analysis identifying effector memory T cells as CD4^+CD44^+CD62L^− or CD4^+CD25^+CD69^+. The ratio of Treg cells to effector memory T cells is shown. […]
Four experimental groups of CD3ε^−/− mice were tested for Treg generation (FIG. 14). […] Mice were analyzed on day 28.
The colons of the animals were assessed for inflammation 14 days after the last injection of oATP (FIG. 15A). […]

human T cells = experiment: Proliferation of CFSE-loaded T cells, plate-bound anti-CD3/28 (FACS); format: cell-based; conditions: 100 μM oATP or 200 μM of PX10 peptide, four days
Protocol: Our results point to a role for pannexin hemichannels in ATP release in T cells. […] CFSE-loaded human T cells were stimulated with plate-bound anti-CD3/28 antibodies in the presence of 100 μM oATP or 200 μM of PX10 peptide. Four days later, the proliferation was measured by FACS analysis.

naive CD4 T cells = experiment: T cell proliferation by CFSE dilution, plate-bound CD3 and CD28 mAbs; format: cell-based, mouse

`Nc1ncnc2c1ncn2[C@@H](C=O)O[C@@H](C=O)COP(=O)(O)OP(=O)(O)OP(=O)(O)O` [oATP] was tested, and the “Treg generation from naïve T cells” value (cd3ε^−/− mice) was “most effective when oATP is present during the first activation of the naïve T cells”, the T cell proliferation (human T cells) was “strongly inhibited” and the “T cell proliferation (CFSE dilution)” value (naive CD4 T cells) was “almost completely inhibited”.
